{
  "source": "patent US20230014352A1",
  "about": "“INHALED STATINS AS BRONCHODILATORS TO IMPROVE LUNG FUNCTION IN RESPIRATORY DISEASES” (priority 2019, published 2023)",
  "key": {"[1]": {"test_system": "airways of C57BL/6 mice", "assay": "Non-inflammatory methacholine (MCh)-induced hypercontractile mouse model, airway % contraction in precision-cut lung slices", "type": "in vivo", "details": "intratracheal 5 mg/kg for 5 days, 1 hr prior to each MCh nebulization", "method": "In this model, mice were administered nebulized methacholine (MCh) during postnatal maturation of ASM, which causes a hypercontractile phenotype without any induction of inflammatory responses.\nAll mouse experiments were approved by the Institutional Animal Care and Use Committee at Brigham & Women's Hospital, Harvard Medical School. The methacholine-induced hypercontractile mouse model has been described in K. R. Patel et al., FASEB J (2017) 31(10):4335-46. Briefly, mice (C57BL/6) were exposed to nebulized MCh (30 mg/mL) for 10 min daily between P15 and −20 (5 days). Control mice were administered nebulized normal saline. This establishes the MCh hyper-contractility asthma phenotype, a non-inflammatory model of asthmatic airway hyperresponsiveness AHR. Mice were administered intratracheal (i.t.) pitavastatin (5 mg/kg for five days) or vehicle control for 1 hour before each MCh nebulization. For airway % contraction assays, mouse precision-cut lung slices (PCLS) were stimulated to contract by increasing MCh concentrations (0.1-100 μM). For each measurement, at least n=4 mice were used from 2 independent experiments, and a total of 20-30 airways per lung."}, "[2]": {"test_system": "mouse PCLS", "assay": "Viability of mouse PCLS (lung tissue toxicity)", "details": "FIG. 10F"}, "[3]": {"test_system": "MLC-2", "assay": "MLC-2 (total and phosphorylated) expression, western blot", "type": "cell-based, human", "details": "1 μM, 24 hours", "method": "Antibodies for western blot analysis against total and phospho-MLC2 were obtained from Santa Cruz Biotechnology and Cell Signaling Technology, respectively. Antibodies for pROCK1, total ROCK1, and GAPDH were obtained from Abcam. Pitavastatin was obtained from Santa Cruz Biotechnology.\n(§1) Non-asthmatic primary human ASM cells were treated with either vehicle or pitavastatin (1 μM) for 24 hours. Cells were then immuno-stained for F-actin expression. […] Cell lysates were analyzed by western blot for total ROCK-1, total ROCK-2, total MLC-2, and phosphorylated MLC-2. As shown in FIGS. 15C and 15D, pitavastatin reduced the total expression of ROCK-1, ROCK-2, and MLC-2 (total and phosphorylated)."}, "[4]": {"test_system": "F-actin", "assay": "F-actin expression, immunostaining", "type": "cell-based, human", "details": "24 hrs; for basal F-actin expression: 1 μM, FIG. 15A/15B", "method": "as §1\nNon-asthmatic primary human ASM cells were co-treated with 1 μM pitavastatin (Pit), Pit with 10 μM GGPP, or Pit with 10 μM GGPP plus 100 μM MA for 24 hrs."}},
  "note": "“Also recorded” adds a separate entry of the source.",
  "data": [
    {"smiles": "O=C(O)C[C@H](O)C[C@H](O)/C=C/c1c(C2CC2)nc2ccccc2c1-c1ccc(F)cc1", "note": "[pitavastatin]", "values": [
      {"measurement": "% airway contraction", "setting": "[1]; FIG. 11B", "value": 14.2, "unit": "%"},
      {"measurement": "% contraction of airways", "setting": "[1]; PCLS response to 500 nM MCh, FIG. 6", "value": 7.3, "unit": "%"},
      {"measurement": "lung tissue toxicity", "setting": "[2]", "value": "did not demonstrate any"},
      {"measurement": "expression of MLC-2 (total and phosphorylated)", "setting": "[3]", "value": "reduced"},
      {"measurement": "reductions of F-actin expression and ASM contraction with GGPP and MA co-treatment", "setting": "[4]; 1 μM Pit with 10 μM GGPP, or with 10 μM GGPP and 100 μM MA, FIG. 15B", "value": "abrogated"},
      {"measurement": "basal F-actin expression", "setting": "[4]", "value": "significantly reduced"},
      {"measurement": "basal F-actin expression", "setting": "[4]; listed as Pit", "value": "reduced F-actin expression; also recorded: significantly reduced"}
    ]}
  ]
}
